pIC50: −log10 of the molar value. Activity calls are given as the source filed them. The rule behind the calls is not given here.

Here are results for ten compounds from ChEMBL document CHEMBL5223133, “A review of MMP-2 structures and binding mode analysis of its inhibitors to strategize structure-based drug design” (Bioorg Med Chem, 2022).

For test [1], the system named is A549. The experiment in a line: Anticancer activity against human A549 cells assessed as cell survival measured after 48 hrs by MTT assay. Particulars: A549, 48 h. It counts as functional, cell-based. On the technique in general: Formazan colour is commonly taken as a measure of viable cells.
The target of test [2] is T1, 72 kDa type IV collagenase (Homo sapiens, UniProt P08253). Nature of the test: Inhibition of MMP2 (unknown origin).
Target sequence in this assay (P08253 whole entry): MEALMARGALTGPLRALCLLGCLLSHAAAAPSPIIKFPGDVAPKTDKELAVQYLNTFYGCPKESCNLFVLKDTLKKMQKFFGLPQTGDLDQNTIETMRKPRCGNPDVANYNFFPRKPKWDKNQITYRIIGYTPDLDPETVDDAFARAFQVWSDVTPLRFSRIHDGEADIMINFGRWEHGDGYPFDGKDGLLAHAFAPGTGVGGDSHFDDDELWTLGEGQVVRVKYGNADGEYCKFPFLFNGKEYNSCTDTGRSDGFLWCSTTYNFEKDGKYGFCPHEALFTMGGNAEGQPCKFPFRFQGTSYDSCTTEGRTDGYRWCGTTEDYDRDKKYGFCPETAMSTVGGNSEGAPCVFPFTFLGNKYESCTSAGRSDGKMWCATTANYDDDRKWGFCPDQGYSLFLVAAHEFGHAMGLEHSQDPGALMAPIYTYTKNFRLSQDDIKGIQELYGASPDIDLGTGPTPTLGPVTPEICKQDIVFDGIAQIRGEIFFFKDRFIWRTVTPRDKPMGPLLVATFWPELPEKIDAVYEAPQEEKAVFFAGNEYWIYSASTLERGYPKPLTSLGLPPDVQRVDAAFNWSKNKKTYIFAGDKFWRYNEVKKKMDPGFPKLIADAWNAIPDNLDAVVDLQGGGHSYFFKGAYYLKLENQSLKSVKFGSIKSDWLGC
Test [3] addresses T1, 72 kDa type IV collagenase. The experiment in a line: Inhibition of human MMP2.
Target sequence in this assay (P08253 whole entry): as above
Test [4] has as its target T1, 72 kDa type IV collagenase. The experiment in a line: Inhibition of MMP2 (unknown origin) gelatinase activity at 5 to 20 uM incubated for 24 hrs by modified zymography assay. Conditions: dose 5-20 µM.
Target sequence in this assay (P08253 110-660 limits assumed): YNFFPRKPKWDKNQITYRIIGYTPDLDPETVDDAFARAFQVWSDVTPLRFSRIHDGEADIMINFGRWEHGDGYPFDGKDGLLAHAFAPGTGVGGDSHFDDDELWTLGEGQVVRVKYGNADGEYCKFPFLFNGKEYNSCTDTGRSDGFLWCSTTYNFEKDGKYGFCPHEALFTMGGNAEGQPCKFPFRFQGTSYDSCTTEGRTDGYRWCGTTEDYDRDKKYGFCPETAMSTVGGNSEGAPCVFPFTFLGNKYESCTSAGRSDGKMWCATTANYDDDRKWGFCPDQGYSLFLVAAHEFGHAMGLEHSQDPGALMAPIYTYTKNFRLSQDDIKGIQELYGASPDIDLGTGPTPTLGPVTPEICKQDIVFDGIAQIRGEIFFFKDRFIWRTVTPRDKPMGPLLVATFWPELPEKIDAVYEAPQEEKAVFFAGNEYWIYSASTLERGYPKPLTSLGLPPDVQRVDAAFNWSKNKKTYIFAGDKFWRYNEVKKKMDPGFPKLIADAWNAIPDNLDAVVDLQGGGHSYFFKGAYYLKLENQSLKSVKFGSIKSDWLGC
Test [5] addresses Matrix metalloproteinase-9 (Homo sapiens) (UniProt P14780). The experiment in a line: Inhibition of MMP9 (unknown origin) gelatinase activity at 5 to 20 uM incubated for 24 hrs by modified zymography assay. Conditions: dose 5-20 µM.
The target of test [6] is T1, 72 kDa type IV collagenase. Nature of the test: Inhibition of MMP2 (unknown origin) gelatinase activity at >= 7.5 uM incubated for 24 hrs by modified zymography assay.
Target sequence in this assay (P08253 110-660 limits assumed): as above
The target of test [7] is Matrix metalloproteinase-9 (Homo sapiens) (UniProt P14780). Nature of the test: Inhibition of MMP9 (unknown origin) gelatinase activity at >= 7.5 uM incubated for 24 hrs by modified zymography assay.
Sequence of Matrix metalloproteinase-9 (Homo sapiens) (P14780 whole entry): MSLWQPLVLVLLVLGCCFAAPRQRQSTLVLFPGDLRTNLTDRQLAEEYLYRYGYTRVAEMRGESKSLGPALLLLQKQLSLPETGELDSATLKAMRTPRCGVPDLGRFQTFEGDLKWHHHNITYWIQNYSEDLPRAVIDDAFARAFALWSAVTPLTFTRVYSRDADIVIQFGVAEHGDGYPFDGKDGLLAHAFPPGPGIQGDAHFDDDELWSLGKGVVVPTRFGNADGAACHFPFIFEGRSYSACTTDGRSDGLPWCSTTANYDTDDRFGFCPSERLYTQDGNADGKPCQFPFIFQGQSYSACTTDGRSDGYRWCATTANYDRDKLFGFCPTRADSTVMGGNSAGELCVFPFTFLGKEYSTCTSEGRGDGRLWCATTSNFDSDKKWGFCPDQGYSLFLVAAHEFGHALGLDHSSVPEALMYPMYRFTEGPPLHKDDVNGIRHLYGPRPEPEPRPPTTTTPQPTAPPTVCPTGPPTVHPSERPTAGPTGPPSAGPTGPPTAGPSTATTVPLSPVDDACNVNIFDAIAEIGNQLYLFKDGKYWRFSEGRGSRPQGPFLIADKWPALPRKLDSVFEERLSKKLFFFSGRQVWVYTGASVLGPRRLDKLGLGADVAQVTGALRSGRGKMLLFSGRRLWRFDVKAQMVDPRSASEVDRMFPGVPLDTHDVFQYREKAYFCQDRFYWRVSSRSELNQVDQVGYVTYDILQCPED

What is called pIC50 is the negative decadic logarithm of the IC50, by convention in mol/L. `O=C(NO)C1CN(C(=O)c2ccccc2)CCCN1C(=O)/C=C/c1ccc(O)c(O)c1` (stereo unspecified): the pIC50 in test [1] was 5.09.

`CNC(=O)[C@@H](NC(=O)c1ccc(-c2ccc(OCc3ccn[nH]3)cn2)o1)C1CCCCC1` had a pIC50 in test [2] of 7.44.

Consider `N#Cc1ccc(Oc2ccc(S(=O)(=O)N3CCc4c([nH]c5ccccc45)C3C(=O)NO)cc2)cc1` (stereo unspecified), for which, in test [2], the pIC50 was 6.82.

The compound `Cc1cc(=O)c(O)c(C(=O)NCc2ccc(-c3ccc(C#N)cc3)cc2)o1` showed a pIC50 in test [2] of 5.03.

Compound `CCCCCCCC/C=C/CCCCCCCC(=O)O` [ELAIDIC ACID] showed a pIC50 in test [3] of 5.70.

A word on the inhibition: it is the percentage by which the read-out fell short of the control. As to `c1cc2nc(c1)CNCCNCCCNCCNC2`, the inhibition result in test [4] and in test [5] was “Active” throughout. Also, the inhibition in test [6] and in test [7] was 100% throughout.

As to `Cc1cc(=O)c(O)c(C(=O)NCc2ccc(-c3ccccc3)cc2)o1`, in test [2], the negative-log IC50 (pIC50) is 6.21.

With `c1cc2nc(c1)CNCCNCCNCCNC2`, the inhibition entry in test [4] and in test [5] was “Active” each time. For the same compound, the inhibition in test [6] and in test [7] was 100% throughout.

The compound `CCCCCCCC/C=C\CCCCCCCC(=O)NNC(=O)[C@H](Cc1cc2ccccc2[nH]1)NC(=O)[C@@H](CC(=O)NO)CC(C)C` had a pIC50 in test [3] of 7.57.

Compound `O=C(NCc1ccco1)Nc1c[nH]c2cccnc2c1=O` gave a pIC50 in test [2] of 5.30.
